This passage reports IC50 results from US12059420B2 (BRISTOL-MYERS SQUIBB COMPANY, priority 2018, dated 2024).

T1 sequence (P14902 whole entry): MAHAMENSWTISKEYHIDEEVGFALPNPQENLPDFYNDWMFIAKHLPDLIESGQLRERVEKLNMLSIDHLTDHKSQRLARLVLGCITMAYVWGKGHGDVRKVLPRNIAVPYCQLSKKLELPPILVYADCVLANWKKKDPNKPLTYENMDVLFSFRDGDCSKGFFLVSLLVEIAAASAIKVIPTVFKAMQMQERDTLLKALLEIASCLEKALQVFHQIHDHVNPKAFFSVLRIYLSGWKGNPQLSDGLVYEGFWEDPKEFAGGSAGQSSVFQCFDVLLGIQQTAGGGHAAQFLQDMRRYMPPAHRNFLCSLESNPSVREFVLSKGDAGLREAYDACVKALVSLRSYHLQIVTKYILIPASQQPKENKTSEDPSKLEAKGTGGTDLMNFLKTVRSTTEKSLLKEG

The assay addresses T1, human IDO1 (Homo sapiens, UniProt P14902).
T1 construct: expressed in transfected cells
Briefly: IDO inhibition assay in HEK293 cells stably expressing human IDO1 (kynurenine production, Ehrlich reagent, absorbance 490 nm). Type of assay: cell-based. The following applies: 20 hours incubation with compound, 500 nM reference standard = 100% inhibition, read-out: IDO1 HEK Human IC50. In a few lines:
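HEK293 clones stably expressing human IDO1 (10,000 cells/well, phenol red-free RPMI, 10% FBS) were treated with compound for 20 hours at 37° C. After 0.2% TCA and 30 min at 50° C., kynurenine was read with Ehrlich reagent at 490 nm. IC50 was normalised to DMSO (0%) and 500 nM reference standard (100%).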
One may read the IC50 as the concentration that inhibits the measured activity by half. On to `CCCN(Cc1ccccc1)c1cc(NC(=O)Nc2ccccc2F)cc(-c2cc(F)ccc2C(=O)O)n1` [Example 261, 2-(6-(benzyl(propyl)amino)-4-(3-(2-fluorophenyl)ureido)pyridin-2-yl)-4-fluorobenzoic acid], for which the IC50 worked out at 1640 nM. Next, `CCCN(Cc1ccccc1)c1cc(NC(=O)Nc2ccccc2F)cc(-c2ccccc2-c2nnn[nH]2)n1` [Example 262, 1-(2-(2-(1H-tetrazol-5-yl)phenyl)-6-(benzyl(propyl)amino)pyridin-4-yl)-3-(2-fluorophenyl)urea]: 105 nM; `CCCN(Cc1ccccc1)c1cc(NC(=O)Nc2cc(C)cc(C)c2)cc(-c2ccccc2-c2nnn[nH]2)n1` [Example 263, 1-(2-(2-(1H-tetrazol-5-yl)phenyl)-6-(benzyl(propyl)amino)pyridin-4-yl)-3-(3,5-dimethylphenyl)urea]: 145 nM.

Turning to `CCCCNC(=O)Nc1cc(-c2ccccc2-c2nnn[nH]2)nc(N(CCC)Cc2ccccc2)c1` [Example 264, 1-(2-(2-(1H-tetrazol-5-yl)phenyl)-6-(benzyl(propyl)amino)pyridin-4-yl)-3-butylurea], the IC50 came to 1800 nM. The figure for `CCCN(Cc1ccccc1)c1cc(NC(=O)Nc2ccc(C(F)(F)F)cc2F)cc(-c2ccccc2-c2nnn[nH]2)n1` [Example 265, 1-(2-(2-(1H-tetrazol-5-yl)phenyl)-6-(benzyl(propyl)amino)pyridin-4-yl)-3-(2-fluoro-4-(trifluoromethyl)phenyl)urea] is 43.3 nM. The figure for `CCCN(Cc1ccccc1)c1cc(NC(=O)Nc2cc(C)no2)cc(-c2ccccc2-c2nnn[nH]2)n1` [Example 266, 1-(2-(2-(1H-tetrazol-5-yl)phenyl)-6-(benzyl(propyl)amino)pyridin-4-yl)-3-(3-methylisoxazol-5-yl)urea] is 2700 nM; for `CCCN(Cc1ccccc1)c1cc(NC(=O)Nc2ccc(C)nc2)cc(-c2ccccc2-c2nnn[nH]2)n1` [Example 267, 1-(2-(2-(1H-tetrazol-5-yl)phenyl)-6-(benzyl(propyl)amino)pyridin-4-yl)-3-(6-methylpyridin-3-yl)urea] it is 1360 nM.

For `CCCN(Cc1ccccc1)c1cc(NC(=O)Nc2ccc(OC(F)(F)F)cc2)cc(-c2ccccc2-c2nnn[nH]2)n1` [Example 268, 1-(2-(2-(1H-tetrazol-5-yl)phenyl)-6-(benzyl(propyl)amino)pyridin-4-yl)-3-(4-(trifluoromethoxy)phenyl)urea], the IC50 is 30.2 nM. Regarding `CCCN(Cc1ccccc1)c1cc(NC(=O)Nc2ccc(OC(F)F)cc2)cc(-c2ccccc2-c2nnn[nH]2)n1` [Example 271, 1-(2-(2-(1H-tetrazol-5-yl)phenyl)-6-(benzyl(propyl)amino)pyridin-4-yl)-3-(4-(difluoromethoxy)phenyl)urea], the concentration for half-maximal inhibition (IC50) was determined as 46.3 nM. Next, `O=C(Nc1ccc(OC(F)(F)F)cc1)Nc1cc(-c2ccccc2-c2nnn[nH]2)nc(N(Cc2ccccc2)Cc2ccccc2)c1` [Example 273, 1-(2-(2-(1H-Tetrazol-5-yl)phenyl)-6-(dibenzylamino)pyridin-4-yl)-3-(4-(trifluoromethoxy)-phenyl)urea]: 609 nM. The figure for `CCN(Cc1ccccc1)c1cc(NC(=O)Nc2ccc(C)cc2)cc(-c2ccccc2-c2nnn[nH]2)n1` [Example 274, 1-(2-(2-(1H-Tetrazol-5-yl)phenyl)-6-(benzyl(ethyl)amino)pyridin-4-yl)-3-(p-tolyl)urea] is 26.8 nM. In the case of `CCN(Cc1ccccc1)c1cc(NC(=O)Nc2ccc(Cl)cc2F)cc(-c2ccccc2-c2nnn[nH]2)n1` [Example 275], the IC50 stood at 26.6 nM. The figure for `CCN(Cc1ccccc1)c1cc(NC(=O)Nc2ccc(C(F)(F)F)cc2)cc(-c2ccccc2-c2nnn[nH]2)n1` [Example 276] is 148 nM; for `CCN(Cc1ccccc1)c1cc(NC(=O)Nc2ccc(OC(F)(F)F)cc2)cc(-c2ccccc2-c2nnn[nH]2)n1` [Example 277] it is 782 nM; for `CCN(Cc1ccccc1)c1cc(NC(=O)Nc2ccc3c(c2)OCO3)cc(-c2ccccc2-c2nnn[nH]2)n1` [Example 278] it is 478 nM. The figure for `CCOc1ccc(NC(=O)Nc2cc(-c3ccccc3-c3nnn[nH]3)nc(N(CC)Cc3ccccc3)c2)cc1` [Example 279] is 537 nM; for `CCN(Cc1ccccc1)c1cc(NC(=O)Nc2ccc(OC(F)F)cc2)cc(-c2ccccc2-c2nnn[nH]2)n1` [Example 280] it is 554 nM. The figure for `CCN(Cc1ccccc1)c1cc(NC(=O)Nc2ccc(Cl)cc2Cl)cc(-c2ccccc2-c2nnn[nH]2)n1` [Example 281] is 13.7 nM. On to `CCN(Cc1ccccc1)c1cc(NC(=O)Cc2ccc(C#N)cc2)cc(-c2ccccc2-c2nnn[nH]2)n1` [Example 282, N-(2-(2-(1H-Tetrazol-5-yl)phenyl)-6-(benzyl(ethyl)amino)pyridin-4-yl)-2-(4-cyanophenyl)acetamide], for which the IC50 is 1580 nM. Next, `CCN(Cc1ccccc1)c1cc(NC(=O)Cc2cc(C)no2)cc(-c2ccccc2-c2nnn[nH]2)n1` [Example 283]: 1150 nM.

`CCN(Cc1ccccc1)c1cc(NC(=O)Cc2cccnc2)cc(-c2ccccc2-c2nnn[nH]2)n1` [Example 284]: the IC50 came to 1620 nM. The figure for `CCN(Cc1ccccc1)c1cc(NC(=O)Cc2ccc(C)nc2)cc(-c2ccccc2-c2nnn[nH]2)n1` [Example 285] is 2330 nM; for `Cc1ccc(NC(=O)Nc2cc(-c3ccccc3-c3nnn[nH]3)nc(N(CC(C)C)C3CCCCC3)c2)cc1` [Example 286, 1-(2-(2-(1H-Tetrazol-5-yl)phenyl)-6-(cyclohexyl(isobutyl)amino)pyridin-4-yl)-3-(p-tolyl)urea] it is 365 nM; for `CC(C)CN(c1cc(NC(=O)Nc2ccc(F)cc2F)cc(-c2ccccc2-c2nnn[nH]2)n1)C1CCCCC1` [Example 287, 1-(2-(2-(1H-Tetrazol-5-yl)phenyl)-6-(cyclohexyl(isobutyl)amino)pyridin-4-yl)-3-(2,4-difluorophenyl)urea] it is 5990 nM.

As for `CCCN(Cc1ccccc1)c1cc(NC(=O)Nc2ccc3c(c2)OCO3)cc(-c2ccccc2-c2nnn[nH]2)n1` [Example 288, 1-(2-(2-(1H-Tetrazol-5-yl)phenyl)-6-(benzyl(propyl)amino)pyridin-4-yl)-3-(benzo[d][1,3]dioxol-5-yl)urea], the IC50 came out at 155 nM.

In the case of `CCCN(Cc1ccccc1)c1cc(NC(=O)Nc2ccc(C(F)(F)F)cc2)cc(-c2ccccc2-c2nnn[nH]2)n1` [Example 289, 1-(2-(2-(1H-Tetrazol-5-yl)phenyl)-6-(benzyl(propyl)amino)pyridin-4-yl)-3-(4-(trifluoromethyl)phenyl)urea], the IC50 turned out to be 41.2 nM. Next, `CCCN(Cc1ccccc1)c1cc(NC(=O)Cc2ccc(C#N)cc2)cc(-c2ccccc2-c2nn[nH]n2)n1` [Example 290, N-(2-(2-(1H-Tetrazol-5-yl)phenyl)-6-(benzyl(propyl)amino)pyridin-4-yl)-2-(4-cyanophenyl)acetamide]: 483 nM.

In the case of `CCCN(Cc1ccccc1)c1cc(NC(=O)Cc2ccc(C)cc2)cc(-c2ccccc2-c2nnn[nH]2)n1` [Example 291], the IC50 was 127 nM. In the case of `CCCN(Cc1ccccc1)c1cc(NC(=O)Cc2cccnc2)cc(-c2ccccc2-c2nn[nH]n2)n1` [Example 292], the concentration for half-maximal inhibition (IC50) amounted to 3360 nM. On to `CCCN(Cc1ccccc1)c1cc(NC(=O)Cc2ccc(C)nc2)cc(-c2ccccc2-c2nnn[nH]2)n1` [Example 293], for which the IC50 amounted to 1370 nM. Next, `CCCN(Cc1ccccc1)c1cc(NC(=O)CC2CCC(C)CC2)cc(-c2ccccc2-c2nnn[nH]2)n1` (centres unmarked) [Example 294]: 774 nM; `CCCN(Cc1ccccc1)c1cc(NC(=O)CC2CCOCC2)cc(-c2ccccc2-c2nnn[nH]2)n1` [Example 295]: 3730 nM. The figure for `CCCN(Cc1ccccc1)c1cc(NC(=O)Cc2cc(C)no2)cc(-c2ccccc2-c2nnn[nH]2)n1` [Example 296] is 797 nM; for `CCCN(Cc1ccccc1)c1cc(NC(=O)Nc2cc(C)on2)cc(-c2ccccc2-c2nnn[nH]2)n1` [Example 297] it is 270 nM.

In the case of `CCCN(Cc1ccccc1)c1cc(NC(=O)N(C)c2ccc(C(F)(F)F)cc2)cc(-c2ccccc2-c2nnn[nH]2)n1` [Example 298], the IC50 was 38.9 nM.

For the molecule `CCCN(Cc1ccccc1)c1cc(NC(=O)Nc2cc(C)ccn2)cc(-c2ccccc2-c2nnn[nH]2)n1` [Example 299], the IC50 was 845 nM.

As for `CCCN(Cc1ccccc1)c1cc(NC(=O)NC2CCCCC2)cc(-c2ccccc2-c2nnn[nH]2)n1` [Example 300], the IC50 amounted to 5210 nM. `CCCN(Cc1ccccc1)c1cc(NC(=O)Nc2ccc(C)cc2)cc(-c2cc(C)ccc2-c2nnn[nH]2)n1` [Example 301, 1-(2-(Benzyl(propyl)amino)-6-(5-methyl-2-(1H-tetrazol-5-yl)phenyl)pyridin-4-yl)-3-(p-tolyl)urea]: the IC50 stood at 46.1 nM. Next, `CCCN(Cc1ccccc1)c1cc(NC(=O)Nc2ccc(Cl)cc2Cl)cc(-c2cc(C)ccc2-c2nnn[nH]2)n1` [Example 302, 1-(2-(Benzyl(propyl)amino)-6-(5-methyl-2-(1H-tetrazol-5-yl)phenyl)pyridin-4-yl)-3-(2,4-dichlorophenyl)urea]: 5.5 nM; `CCCN(Cc1ccccc1)c1cc(NC(=O)Cc2ccc(C)cc2)cc(-c2cc(C)ccc2-c2nnn[nH]2)n1` [Example 303, N-(2-(Benzyl(propyl)amino)-6-(5-methyl-2-(1H-tetrazol-5-yl)phenyl)pyridin-4-yl)-2-(p-tolyl)acetamide]: 102 nM. `CCCN(Cc1ccccc1)c1cc(NC(=O)C2CCCCC2)cc(-c2cc(C)ccc2-c2nnn[nH]2)n1` [Example 304, N-(2-(Benzyl(propyl)amino)-6-(5-methyl-2-(1H-tetrazol-5-yl)phenyl)pyridin-4-yl)cyclohexanecarboxamide]: the IC50 is 1310 nM.
